Data published in patent US9486455B2, “Compounds for modulating TRPV3 function” (HYDRA BIOSCIENCES, INC., priority 2007, dated 2016).
Like-named read-outs stand apart in the source and are kept apart here.

Experiments:
[1] = target: T1, human (h) TRPV3 (Homo sapiens, UniProt Q8NET8); test: Whole-cell patch clamp, human TRPV3-mediated currents; assay type: cell-based;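 also: compounds tested at concentrations up to 30 µM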
T1 construct: expressed in transfected cells; host or cells: HEK293/TREx, tetracycline-induced
T1 sequence (Q8NET8 1-790): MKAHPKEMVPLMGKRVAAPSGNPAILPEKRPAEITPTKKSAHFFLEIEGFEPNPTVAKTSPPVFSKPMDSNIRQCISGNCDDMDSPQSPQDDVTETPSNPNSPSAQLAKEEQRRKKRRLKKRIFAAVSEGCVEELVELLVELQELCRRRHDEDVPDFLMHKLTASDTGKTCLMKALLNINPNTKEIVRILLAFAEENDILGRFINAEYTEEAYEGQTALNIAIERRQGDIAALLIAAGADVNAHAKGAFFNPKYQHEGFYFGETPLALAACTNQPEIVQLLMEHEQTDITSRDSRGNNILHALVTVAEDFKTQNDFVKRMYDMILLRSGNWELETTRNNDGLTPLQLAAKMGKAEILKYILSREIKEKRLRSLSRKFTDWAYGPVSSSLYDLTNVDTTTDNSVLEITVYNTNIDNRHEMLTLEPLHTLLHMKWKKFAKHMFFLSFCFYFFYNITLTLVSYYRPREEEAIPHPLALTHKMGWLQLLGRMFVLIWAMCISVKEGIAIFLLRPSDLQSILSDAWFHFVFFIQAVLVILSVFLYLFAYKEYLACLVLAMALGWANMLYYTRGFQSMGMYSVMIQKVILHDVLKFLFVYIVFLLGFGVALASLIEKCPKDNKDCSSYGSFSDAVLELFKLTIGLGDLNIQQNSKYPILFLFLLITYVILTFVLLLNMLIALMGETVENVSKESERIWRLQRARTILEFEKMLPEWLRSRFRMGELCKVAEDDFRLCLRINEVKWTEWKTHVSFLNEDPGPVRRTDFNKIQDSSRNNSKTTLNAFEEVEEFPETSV
Description: (§1) Whole-cell patch clamp experiments permit the detection of currents through the TRPV3 channel in the cell line described above. A glass electrode is brought into contact with a single cell and the membrane is then ruptured, permitting control of the voltage of the cell membrane and measurement of currents flowing across the membrane using the amplifier attached to the electrode. A perfusion system permits control of the extracellular solution, including the addition of blockers and activators of the current. The current can be activated by heating this solution to 28° C. or warmer or by addition of 20 μM 2-APB to the solution.
(§2) TRPV3 cells were induced 20-48 hours, removed from growth plates, and replated at low density (to attain good single-cell physical separation) on glass coverslips for measurement. In some cases, cells were grown in low density overnight on glass coverslips. Patch clamp recordings were made in the whole-cell mode with a holding potential of −40 mV. Every 5 seconds, a voltage ramp was applied from −120 to +100 mV, 400 ms in duration. Currents elicited were quantified at −80 mV and +80 mV. The internal solution consisted of 140 mM cesium aspartate, 10 mM EGTA, 2.27 mM MgCl2, 1.91 mM CaCl2 and 10 mM HEPES, pH to 7.2 with KOH; with 50 nM calculated free Ca^2+. External solution was Ringer's solution described above. Upon addition of 2-APB or upon heating of the extracellular solution as described above, TRPV3 current was induced only in TRPV3-expressing cells and not in parental HEK293 TREx cells. […] Removal of the stimulus caused most of the current to go away, and inhibitor addition could still inhibit this current. […]
(§3) P1 refers to the Phase 1 current for human (h) and rat (r) TRPV3, and P2 refers to the Phase 2 current for human (h) and rat (r) TRPV3.

[2] = target: T2, rat (r) TRPV3 (Rattus norvegicus, UniProt Q4QYD9); test: Whole-cell patch clamp, rat TRPV3-mediated currents; assay type: cell-based;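 also: compounds tested at concentrations up to 30 µM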
T2 construct: expressed in transfected cells
T2 sequence (Q4QYD9 1-791): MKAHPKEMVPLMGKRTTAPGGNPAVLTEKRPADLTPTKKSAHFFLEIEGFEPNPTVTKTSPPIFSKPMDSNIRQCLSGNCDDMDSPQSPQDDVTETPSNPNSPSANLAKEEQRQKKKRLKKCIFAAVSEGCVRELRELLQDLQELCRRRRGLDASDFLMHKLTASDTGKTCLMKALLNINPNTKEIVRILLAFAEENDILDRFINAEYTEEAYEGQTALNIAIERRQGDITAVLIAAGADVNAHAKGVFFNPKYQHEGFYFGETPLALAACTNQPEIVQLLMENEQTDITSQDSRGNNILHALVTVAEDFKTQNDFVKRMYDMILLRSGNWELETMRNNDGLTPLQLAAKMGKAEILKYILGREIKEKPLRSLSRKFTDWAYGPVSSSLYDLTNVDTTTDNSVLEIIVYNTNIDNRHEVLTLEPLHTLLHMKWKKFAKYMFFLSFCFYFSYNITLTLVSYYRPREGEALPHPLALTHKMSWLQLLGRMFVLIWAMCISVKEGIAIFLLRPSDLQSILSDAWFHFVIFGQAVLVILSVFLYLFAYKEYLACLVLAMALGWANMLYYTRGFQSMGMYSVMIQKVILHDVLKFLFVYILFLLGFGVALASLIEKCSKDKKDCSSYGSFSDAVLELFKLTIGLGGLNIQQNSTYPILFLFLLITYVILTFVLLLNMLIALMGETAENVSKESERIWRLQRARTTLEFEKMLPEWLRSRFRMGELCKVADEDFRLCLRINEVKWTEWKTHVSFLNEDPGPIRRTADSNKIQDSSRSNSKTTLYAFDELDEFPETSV
Description: as §1, §2, §3

[3] = target: T3, hERG (Homo sapiens, UniProt Q12809); test: Ion channel selectivity, hERG channel current
T3 sequence (Q12809 whole entry): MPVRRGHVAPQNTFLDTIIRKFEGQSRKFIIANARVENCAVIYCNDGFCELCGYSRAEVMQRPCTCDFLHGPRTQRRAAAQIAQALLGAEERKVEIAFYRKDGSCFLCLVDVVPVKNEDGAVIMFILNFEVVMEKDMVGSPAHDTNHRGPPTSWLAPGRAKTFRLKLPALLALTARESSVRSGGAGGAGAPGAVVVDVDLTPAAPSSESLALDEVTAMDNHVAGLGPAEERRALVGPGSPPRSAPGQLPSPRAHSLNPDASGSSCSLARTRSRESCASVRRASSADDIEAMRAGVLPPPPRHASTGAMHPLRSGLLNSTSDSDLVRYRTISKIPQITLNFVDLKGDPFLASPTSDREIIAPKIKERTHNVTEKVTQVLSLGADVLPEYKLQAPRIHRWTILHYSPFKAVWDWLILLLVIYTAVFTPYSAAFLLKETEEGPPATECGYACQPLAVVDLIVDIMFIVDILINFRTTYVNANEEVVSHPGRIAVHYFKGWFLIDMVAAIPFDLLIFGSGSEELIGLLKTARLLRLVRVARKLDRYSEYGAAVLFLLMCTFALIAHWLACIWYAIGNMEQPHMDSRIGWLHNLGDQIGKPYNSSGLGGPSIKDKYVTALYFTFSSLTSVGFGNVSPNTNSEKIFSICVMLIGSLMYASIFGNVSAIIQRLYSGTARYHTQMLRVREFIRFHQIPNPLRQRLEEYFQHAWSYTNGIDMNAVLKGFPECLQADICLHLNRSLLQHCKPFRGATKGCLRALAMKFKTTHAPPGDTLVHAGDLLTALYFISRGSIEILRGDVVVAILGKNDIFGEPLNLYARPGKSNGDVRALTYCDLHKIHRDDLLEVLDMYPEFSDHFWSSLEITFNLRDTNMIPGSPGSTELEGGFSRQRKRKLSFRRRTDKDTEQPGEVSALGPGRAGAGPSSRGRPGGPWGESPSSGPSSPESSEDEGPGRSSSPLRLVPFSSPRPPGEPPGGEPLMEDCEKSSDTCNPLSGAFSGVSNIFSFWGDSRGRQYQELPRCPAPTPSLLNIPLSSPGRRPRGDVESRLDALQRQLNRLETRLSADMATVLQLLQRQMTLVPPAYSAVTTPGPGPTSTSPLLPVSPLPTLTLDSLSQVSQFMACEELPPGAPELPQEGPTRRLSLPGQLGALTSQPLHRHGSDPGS
Description: (§4) Compounds of interest can be tested against these channels at concentrations up to 30 μM, and the resulting data can be used to estimate IC50 for inhibition of the activity of these other ion channels.

[4] = target: T3, hERG; test: in vitro
Description: as §4

[5] = target: T4, TRPV3 channel (Homo sapiens, UniProt Q8NET8); test: High-throughput screening assay: Ca2+ rise after 2-APB activation in HEK293/TREx cells inducibly expressing TRPV3; assay type: cell-based; conditions: read-out: IC50 for inhibition of TRPV3 activity; Ca2+ flux, Fura-2, 150 μM 2-APB
T4 construct: expressed in transfected cells; host or cells: HEK293/TREx (Invitrogen), tetracycline-induced
T4 sequence (Q8NET8 1-790): T1 sequence (Q8NET8 1-790)
Description: The assay depends on detection of the rise in intracellular Ca^2+ concentration ([Ca^2+]i) following channel activation in cells inducibly expressing the TRPV3 channel. Ca^2+ rise is quantified with the use of fluorescent Ca^2+ indicators that are loaded into cells and thereafter indicated the [Ca^2+]i. Ca^2+ influx follows activation of the TRPV3 channel. Compounds inhibiting this [Ca^2+]i rise are considered hits for further investigation.
The commercially available HEK293/TREx line (Invitrogen) was stably transfected with a TRPV3 construct and screened by immunostaining to find clones with TRPV3 expression following stimulation with 1 μg/ml tetracycline. Clonal TRPV3-expressing cells were maintained in the growth medium recommended by the manufacturer supplemented with 100 μg/ml hygromycin to promote retention of the TRPV3 construct. After growing to near confluency, cells are plated at a density of ˜25,000 cells/well in 384 well plates in the presence of 1 μg/ml tetracycline, and allowed to grow for 20-30 hrs. A nearly confluent monolayer results. […] These controls defined a screening window, and “hits” were defined as those test compounds inhibiting the fluorescence response by at least 40%.

[6] = Phase 2 inward current, read-out: P2 In (h)
[7] = Phase 2 outward current, read-out: P2 Out (h)
[8] = Phase 1 inward current, read-out: P1 In (r)
[9] = Phase 1 outward current, read-out: P1 Out (r)
[10] = Phase 2 inward current, read-out: P2 In (r)
[11] = Phase 2 outward current, read-out: P2 Out (r)
[12] = Phase 1 inward current, read-out: P1 In (h)
[13] = Phase 1 outward current, read-out: P1 Out (h)

COc1cccc(C=Cc2nc3cnccc3c(=O)n2-c2c(C)cccc2C)c1O [Compound 8]
IC50 [1, 6]: ≤ 500 nM | IC50 [1, 7]: ≤ 500 nM | IC50 [2, 8]: ≤ 500 nM | IC50 [2, 9]: ≤ 500 nM | IC50 [2, 10]: ≤ 500 nM | IC50 [2, 11]: ≤ 500 nM | IC50 [3]: ≥ 20000 nM

CCOc1cccc(/C=C/c2nc3cnccc3c(=O)n2-c2c(C)cccc2C)c1O [Compound 11]
IC50 [1, 12]: ≤ 500 nM | IC50 [1, 13]: ≤ 500 nM | IC50 [1, 6]: ≤ 500 nM | IC50 [1, 7]: ≤ 500 nM | IC50 [2, 8]: ≤ 500 nM | IC50 [2, 9]: ≤ 500 nM | IC50 [3]: ≥ 20000 nM

COc1nccc(/C=C/c2nc3ccccc3c(=O)n2-c2c(C)cccc2C)c1O [Compound 37]
IC50 [1, 12]: ≤ 500 nM | IC50 [1, 13]: ≤ 500 nM | IC50 [1, 6]: ≤ 500 nM | IC50 [1, 7]: ≤ 500 nM | IC50 [2, 8]: ≤ 500 nM | IC50 [2, 9]: ≤ 500 nM | IC50 [2, 10]: ≤ 500 nM | IC50 [2, 11]: ≤ 500 nM | IC50 [4]: ≥ 20000 nM

Cc1cccc(C)c1-n1c(/C=C/c2cccc3cn[nH]c23)nc2ccccc2c1=O [Compound 40]
IC50 [5]: < 5000 nM

CCOc1cccc(C=Cc2nc3ccccc3c(=O)n2-c2c(C)cccc2C)c1O [Compound 49]
IC50 [1, 12]: ≤ 500 nM | IC50 [1, 13]: ≤ 500 nM | IC50 [1, 6]: ≤ 500 nM | IC50 [1, 7]: ≤ 500 nM | IC50 [2, 8]: ≤ 500 nM | IC50 [2, 9]: ≤ 500 nM | IC50 [2, 10]: ≤ 500 nM | IC50 [2, 11]: ≤ 500 nM | IC50 [3]: ≥ 20000 nM

CCc1cccc(CC)c1-n1c(/C=C/c2cccc(OC)c2O)nc2ccccc2c1=O [Compound 50]
IC50 [1, 12]: ≤ 500 nM | IC50 [1, 13]: ≤ 500 nM | IC50 [1, 6]: ≤ 500 nM | IC50 [1, 7]: ≤ 500 nM | IC50 [2, 8]: ≤ 500 nM | IC50 [2, 9]: ≤ 500 nM | IC50 [2, 10]: ≤ 500 nM | IC50 [2, 11]: ≤ 500 nM | IC50 [3]: ≥ 20000 nM

Cc1cccc(C)c1-n1c(/C=C/c2cccc(OC(F)(F)F)c2O)nc2ccccc2c1=O [Compound 55]
IC50 [1, 12]: ≤ 500 nM | IC50 [1, 13]: ≤ 500 nM | IC50 [1, 6]: ≤ 500 nM | IC50 [1, 7]: ≤ 500 nM | IC50 [2, 8]: ≤ 500 nM | IC50 [2, 9]: ≤ 500 nM | IC50 [3]: ≥ 20000 nM

COc1cccc(/C=C/c2nc3ccccc3c(=O)n2-c2c(F)cccc2F)c1O [Compound 56]
IC50 [1, 12]: ≤ 500 nM | IC50 [1, 13]: ≤ 500 nM | IC50 [1, 6]: ≤ 500 nM | IC50 [1, 7]: ≤ 500 nM | IC50 [2, 8]: ≤ 500 nM | IC50 [2, 9]: ≤ 500 nM | IC50 [2, 10]: ≤ 500 nM | IC50 [2, 11]: ≤ 500 nM

CCOc1cccc(C=Cc2nc3ccccc3c(=O)n2-c2c(F)cccc2F)c1O [Compound 57]
IC50 [1, 12]: ≤ 500 nM | IC50 [1, 13]: ≤ 500 nM | IC50 [1, 6]: ≤ 500 nM | IC50 [1, 7]: ≤ 500 nM | IC50 [2, 8]: ≤ 500 nM | IC50 [2, 9]: ≤ 500 nM
